Data: PubChem BioAssay (NCI)
Values joined by “and” are separate entries in the source; they are usually repeats but may differ in a detail not shown here. Identical values can stand only once.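 Step 1: Grow cells in 96-well plates. Step 2: Expose to compound for 48 hours at 5 concentrations. Step 3: Interpolate endpoints linearly; if unreached, use highest concentration. GI50 marks 50% less growth. At the TGI there is no net growth.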 Where a SMILES comes first, the peptide text is derived from it. [ ]: non-standard residue; d: D form. The star is where a group is joined. X28 = COC1=CC(=O)N(C(=O)[C@@H](O*)C(C)C)[C@H]1Cc1ccccc1; NMeL = CN[C@@H](CC(C)C)C(=O)O; Cbz = O=C(OCc1ccccc1)*

What was measured:
Assay in all cases: DTP human tumour cell line panel, 48 h
HOP-92 NSCLC = system: HOP-92 NSCLC
OVCAR-3 ovarian = system: OVCAR-3 ovarian
KM12 colon = system: KM12 colon
SF-268 CNS = system: SF-268 CNS
MDA-N = system: MDA-N
HCT-15 colon = system: HCT-15 colon
NCI/ADR-RES ovarian = system: NCI/ADR-RES ovarian
M14 melanoma = system: M14 melanoma
A498 renal = system: A498 renal
SK-MEL-2 melanoma = system: SK-MEL-2 melanoma

| Compound | TGI (HOP-92 NSCLC) | TGI (OVCAR-3 ovarian) | TGI (KM12 colon) | TGI (SF-268 CNS) [µM] | TGI (MDA-N) | TGI (HCT-15 colon) [µM] | TGI (NCI/ADR-RES ovarian) [µM] | TGI (M14 melanoma) [µM] | TGI (A498 renal) [µM] | TGI (SK-MEL-2 melanoma) [µM] | GI50 (HOP-92 NSCLC) | GI50 (SF-268 CNS) | GI50 (M14 melanoma) |
| --- | --- | --- | --- | --- | --- | --- | --- | --- | --- | --- | --- | --- | --- |
| O=C(O)[C@H]1NC[C@@H]2ON=C(Br)[C@@H]21 | > 100 µM | > 100 µM | > 100 µM | > 100 | > 100 µM | > 100 | > 100 | > 100 | > 100 | > 100 |  |  |  |
| CN1CCN(c2ccc3nc(-c4ccc5nc(-c6ccc(N(C)CCCl)cc6)[nH]c5c4)[nH]c3c2)CC1 | 0.989 µM |  | 2.31 µM | 11 | 0.511 µM | 26.1 | > 100 | 3.42 | 6.74 | 0.465 |  |  |  |
| COC(=O)Nc1nc2ccc(NS(=O)(=O)c3ccc(F)cc3)cc2[nH]1 | > 100 µM | 16.2 µM | 74.7 µM | > 100 | 7.45 µM | > 100 | 54.2 | > 100 | > 100 | > 100 |  |  |  |
| Cc1cc2nc(NS(=O)(=O)c3cc(C)c(Cl)cc3S)[nH]c2cc1C | > 100 µM | > 100 µM | > 100 µM | > 100 | > 100 µM | > 100 | > 100 | > 100 | > 100 | > 100 |  |  |  |
| CC1(C)C(C(=O)OC(C#N)c2cccc(OCC(=O)OCc3ccccc3)c2)C1(C)C (stereo unspecified) | > 100 µM | > 100 µM | > 100 µM | > 100 | > 100 µM | > 100 | > 100 | > 100 | > 100 | > 100 |  |  |  |
| O=C1CSC(c2c(O)ccc3ccccc23)N1n1c(=S)[nH]nc(/C=C/c2c(O)ccc3ccccc23)c1=O (stereo unspecified) | 65.3 µM | 17.7 µM |  | 40.3 | > 100 µM | 23.2 | 14.7 | 3.32 | 18.4 | 15.1 |  |  |  |
| O=c1[nH]c2cc([N+](=O)[O-])c(N(CCO)CCO)c([N+](=O)[O-])c2[nH]1 | > 100 µM | 33.3 µM | 93.3 µM | > 100 | > 100 µM | > 100 | > 100 | 89 | 66 | 96.1 |  |  |  |
| O=C(O)C1C2CCC(C2)C1c1ccccc1 (stereo unspecified) | > 100 µM | > 100 µM | > 100 µM | > 100 | > 100 µM | > 100 | > 100 | > 100 | > 100 | > 100 |  |  |  |
| Nc1nc(SCc2ccccc2[N+](=O)[O-])c2[nH]cnc2n1 | 9.06 µM | > 100 µM | > 100 µM | > 84.6 | > 100 µM | > 100 | > 100 | > 100 | 48.3 | 90.3 |  |  |  |
| COc1cc(C(c2cc(OC)c(OC)c(OC)c2)N2C(=O)CCC2C(=O)O)cc(OC)c1OC (stereo unspecified) | > 100 µM | > 100 µM | > 100 µM | > 100 | > 100 µM | > 100 | > 100 | > 100 | > 100 | > 100 |  |  |  |
| C[N+](C)(N)Cc1csc(-c2ccc(Cl)cc2)n1 | > 100 µM | > 100 µM | > 100 µM | > 100 | > 100 µM | > 100 | > 100 | > 100 | > 100 | > 100 |  |  |  |
| COC(=O)C1(Cc2ccc3c(c2)CCC3)Cc2cc3c(cc2C1=O)CCC3 (stereo unspecified) | 42.9 µM | > 46.4 µM | > 46.4 µM | > 46.4 | > 46.4 µM | > 46.4 | > 46.4 | > 46.4 | > 31.6 | > 31.6 |  |  |  |
| COC1=CC(=O)N(C(=O)[C@@H](OC(=O)[C@@H]2CCCN2C(=O)[C@@H]2CCCN2C(=O)[C@H](CC(C)C)N(C)C(=O)[C@@H](NC(=O)[C@@H](NC(=O)OCc2ccccc2)C(C)C)C(C)C)C(C)C)[C@H]1Cc1ccccc1 (Cbz-VV[NMeL]PP-X28) | > 100 µM | > 100 µM | > 100 µM | > 100 | > 100 µM | > 100 | > 100 | > 100 | 56.1 | 28.6 |  |  |  |
| COc1cc(C(=O)OC2CC(C)=CC[C@@]3(C)CC[C@](O)(C(C)C)C23)ccc1O (stereo partly specified) | 30.5 µM | 35.5 µM | 29.9 µM | 38.7 | 35.2 µM | 35.3 | 37.6 | 33.1 | 33.7 | 33.2 |  |  |  |
| O=C1O[C@H](COC(=O)c2ccccc2)[C@@H](OC(=O)c2ccccc2)C=C1OC(=O)c1ccccc1 | 42.8 µM | 35.9 µM | > 100 µM | 36.8 | > 100 µM | 39.6 | 38.8 | 31.9 | > 100 | 50.8 |  |  |  |
| CN(C)Cc1cc(C(=O)/C=C/c2c(F)cccc2Cl)cc(CN(C)C)c1O | 20.3 µM | 24.6 µM | 30.4 µM | 23.5 | 29.1 µM | 19.1 | 75.7 | 30 | 21 | 35.5 |  |  |  |
| COc1ccc(-c2c(C(C)=O)c(-c3ccccc3)n(C3OC(COC(C)=O)C(OC(C)=O)C(OC(C)=O)C3OC(C)=O)c(=S)c2C#N)cc1O (stereo unspecified) | 82.5 µM and > 100 µM | 41 µM and > 100 µM | 56.6 µM and > 100 µM | > 100 | 81.5 µM and > 100 µM | > 100 | > 100 | > 100 | > 100 |  | 43.9 µM and 17.3 µM | 32.6 µM and 76.2 µM | 36.2 µM and 93 µM |

| Compound | TGI (HOP-92 NSCLC) | TGI (OVCAR-3 ovarian) | TGI (KM12 colon) | TGI (SF-268 CNS) [µM] | TGI (MDA-N) | TGI (HCT-15 colon) [µM] | TGI (NCI/ADR-RES ovarian) [µM] | TGI (M14 melanoma) [µM] | TGI (A498 renal) [µM] | TGI (SK-MEL-2 melanoma) [µM] | GI50 (HOP-92 NSCLC) | GI50 (SF-268 CNS) | GI50 (M14 melanoma) |
| --- | --- | --- | --- | --- | --- | --- | --- | --- | --- | --- | --- | --- | --- |
| O=C(O)C1(CC(CCCN2CCCCC2)c2ccccc2)CCCC1 (stereo unspecified) | > 100 µM | > 100 µM | > 100 µM | > 100 | > 100 µM | > 100 | > 100 | > 100 | > 100 | > 100 |  |  |  |
| CN1CCN(CCCCNc2cc3c4ccccc4c(NCCCCN4CCN(C)CC4)cc3c3ccccc23)CC1 | 28.2 µM | 8.5 µM | 3.06 µM | 8.04 | 0.977 µM | 2.88 | 21.6 | 2.16 | 28.5 | 16.5 |  |  |  |
| CCOC(=O)c1[nH]n(-c2ccccc2)c(=O)c1C=NC(=S)C(N)=S | > 100 µM | > 100 µM | > 100 µM | > 100 | > 100 µM | > 100 | > 100 | 73.3 | > 100 | > 100 |  |  |  |
| OC(C1CCCC1=N/N=C1/CCCC1C(O)(C(F)(F)Cl)C(F)(F)Cl)(C(F)(F)Cl)C(F)(F)Cl (stereo unspecified) | > 10 µM | > 10 µM | > 10 µM | > 10 | > 10 µM | > 10 | > 10 | > 10 | > 10 | > 10 |  |  |  |
| CCC(c1nc2ccccc2c(=O)n1NC(=O)C(C)(C)C)C1(O)CCCCC1 (stereo unspecified) | > 100 µM | > 100 µM | > 100 µM | > 100 | > 100 µM | > 100 | > 100 | > 100 | > 100 | > 100 |  |  |  |
| CC(=O)O[C@H]1CC[C@H]2[C@@H]3CC[C@H]4Nc5c(cnn5S(C)(=O)=O)C[C@]4(C)[C@H]3CC[C@]12C | > 100 µM | 78.1 µM | > 100 µM |  | > 100 µM | > 100 | > 100 | > 100 | > 100 | > 100 |  |  |  |
| O=C(OCc1c(-c2ccccc2)nn(-c2ccccc2)c1COC(=O)Oc1ccccc1)Oc1ccccc1 | > 100 µM | > 100 µM | > 100 µM | > 100 | > 100 µM | > 100 | > 100 | > 100 | > 100 |  |  |  |  |
| CC(C)=CCC[C@@H](C)C1=C(O)C(Nc2ccccc2F)=C(C)C(=O)C1=O | > 65.3 µM | > 30.4 µM | > 100 µM | > 54 | > 100 µM | > 70.2 | 23 | > 57.6 | 67.2 | 68.3 |  |  |  |
| CCN(CC)CCNc1ccc2nnn3c4ccc(OC(C)=O)cc4c(=O)c1c23 | 17.7 µM | 22.2 µM | 15.4 µM | 18.1 | 17.8 µM | 13.6 | 19.1 | 21 | 21 | 30.7 |  |  |  |
| COc1ccc(CCNC(=S)/N=C\C2=C(O)c3ccccc3C2=O)cc1OC | 8.92 µM | 0.746 µM | > 100 µM | > 100 | > 100 µM | > 100 | > 100 | > 100 | > 100 | > 100 |  |  |  |
| CC(=N\N=C\c1ccccn1)/C(C)=N/N=C/c1ccccn1 | > 100 µM | > 100 µM | > 100 µM | > 100 | > 100 µM | > 100 | > 100 | > 100 | > 100 | > 100 |  |  |  |
| CC1=NN(c2cccc(Cl)c2)C2(C1)SCC(=O)N2c1nc2ccccc2s1 (stereo unspecified) | > 100 µM | 58.9 µM | 69.2 µM | > 100 | > 100 µM | > 100 | > 100 | 86.5 | 89.8 | 49.2 |  |  |  |
| CCOc1ccc(-n2c(=O)n3c(Nc4ccc(Cl)cc4)nc4c(c(=O)n(C)c(=O)n4C)n3c2=O)cc1 | 48.2 µM | 52.5 µM | 30.9 µM | > 100 | > 100 µM | 42 | > 100 |  | 39.4 | > 100 |  |  |  |
| Cn1c2cc(Cl)ccc2c2ccc3c(c21)C(=O)C=CC3=O | 35.8 µM | 17.1 µM | > 100 µM | > 82.6 | 83.1 µM | > 57.5 | > 89.7 | > 64 | > 100 | > 100 |  |  |  |
| N#CCCCCC12C3C(=O)N(c4ccccc4)C(=O)C3ON1O[C@@H]1C(=O)N(c3ccccc3)C(=O)[C@@H]12 (stereo partly specified) | > 100 µM | > 100 µM | > 100 µM | > 100 | > 100 µM | > 100 | > 100 | > 100 | > 100 |  |  |  |  |
| CS(=O)(=O)OC1CCN(C2(c3cccc(O)c3)CCCCC2)CC1 | > 100 µM | > 100 µM | > 100 µM | > 100 | > 100 µM | > 100 | > 100 | > 100 | > 100 | > 100 |  |  |  |
